Consider four molecules from US8993717B2, “Gadd45beta targeting agents” (Imperial Innovations Limited, priority 2009, dated 2015).

In series [1] the test system is primary B and T lymphocytes. Nature of the series: [3H]thymidine incorporation in purified primary B and T lymphocytes. Format: cell-based, mouse. The settings on record: 100 μM, 72 hrs. Here is the method: In order to determine the in vitro therapeutic index of Z-/mDTPs, viability and proliferation assays were also performed with primary untransformed cells of both human and mouse origin, after treatment with either 10 μM or 100 μM of Z-DTP1, Z-DTP2 and Z-DNC. To this end, bone marrow stromal cells (BMSCs) peripheral blood mononuclear cells (PBMNCs) and mesenkymal stem cells (MSCs) were purified from healthy individuals after Ficoll-Hypaque density separation, in accordance with the protocols reported in the reference by Piva R. et all 2008 Blood 111: 2765-2775). BMSCs, PBMNCs, and MSCs cells were then treated for the times indicated and with the peptide concentrations specified in FIGS. 15A and 15B. To further establish the specificity of the cytotoxic activity of Z-/mDTPs for cancer cells, we also used primary B and T lymphocytes purified from the spleen and lymph nodes of mice, respectively, essentially as described in the reference by Shirakawa et al 2010 Cell Mal immunology 1-12. B and T cells were then activated by simulation with 1 ng/mL of LPS for 16 hrs and subsequently treated with 100 μM of Z-DTP1, Z-DTP2 or Z-DNC for 72 hrs as shown in FIG. 15B.
In general terms: Uptake of a labelled nucleoside into DNA is a usual measure of proliferation.

For the next series, the system named is CaCO2. Nature of the series: CaCO2 assays. Format: in vitro ADME. The conditions noted are these: data not shown.
The next series has as its target T1, Gadd45β-inhibited MKK7 (Homo sapiens, UniProt O14733).
T1 construct: expressed in transfected cells; host or cells: HEK-293 (FLAG-MKK7); bacteria (GST-hGadd45β)
T1 sequence (O14733 1-419): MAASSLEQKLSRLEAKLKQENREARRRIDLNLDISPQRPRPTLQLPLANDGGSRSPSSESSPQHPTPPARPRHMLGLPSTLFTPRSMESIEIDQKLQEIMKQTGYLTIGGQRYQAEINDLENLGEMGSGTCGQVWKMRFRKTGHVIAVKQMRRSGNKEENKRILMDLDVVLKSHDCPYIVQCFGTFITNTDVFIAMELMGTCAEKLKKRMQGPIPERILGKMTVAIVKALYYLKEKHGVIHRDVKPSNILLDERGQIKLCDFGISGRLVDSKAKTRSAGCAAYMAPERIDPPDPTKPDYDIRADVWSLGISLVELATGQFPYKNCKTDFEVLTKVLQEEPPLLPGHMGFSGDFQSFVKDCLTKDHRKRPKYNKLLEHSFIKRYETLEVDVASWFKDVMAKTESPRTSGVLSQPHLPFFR
Nature of the series: MKK7 kinase assay in the presence of recombinant hGadd45β. Format: biochemical. The settings on record: 1 nM or 5 nM peptide, 5 μM GST-hGadd45β. The protocol:
In FIG. 6, transient transfection of pcDNA-FLAG-MKK7 in HEK-293 cells was performed using the method of Ca3(PO4)2 precipitation, essentially as described in Papa, S et al., (2004) Nat. Cell Biol. 6, 146-153 and references therein. 36 hrs after transfection, the cells were treated with 100 ng/ml phorbol 12-myristate 13-acetate (PMA) and 1 μM ionomycin for 30 min at 37° C. Cell extracts were prepared as described in example 4 and used for immunoprecipitation with anti-FLAG antibodies (binding to FLAG-MKK7) as described in Papa, S et al., (2004) Nat. Cell Biol. 6, 146-153 and references therein. Briefly, 50 μg of cell lysate from PMA-ionomycin (P/D-treated or untreated, HEK-293 cells transiently expressing FLAG-MKK7 was incubated with 10 μl of anti-FLAG M2 Affinity Gel (SIGMA) for 4 hrs at 4° C. during rotation. The immunoprecipitates were then washed 3 times in lysis buffer and twice more in kinase buffer (10 mM HEPES, 5 mM MgCl2, 1 mM MnCl2,12.5 mM β-glycerophosphate, 2 mM DTT, 4 mM NaF and 0.1 mM Na3VO4). MKK7 catalytic activity was finally measured in kinase assays by incubating FLAG-MKK7 immunoprecipitates at 30° C. for 20 min with 20 μl of kinase buffer containing 2 μM of recombinant GST-JNK1 and 5 μCi of [γ-^32P]ATP) (kinase reaction), as described in Papa, S et a., (2004) Nat. Cell Biol. 6, 146-153 and references therein.
In some reactions, to test the ability of D-tetrapeptide antagonists to disrupt the Gadd45β-MKK7 interaction and so release the catalytic activity of MKK7 from Gadd45β-afforded inhibition, FLAG-MKK7 immunoprecipitates were 1) first pre-incubated for 10 min at 30° C. with either 1 nM or 5 nM of DTP1, DTP2 or negative control (NC) D-tetrapeptides, NC1, NC2, NC3 and NC4, and 2) then incubated for another 10 min at 30° C. with or without 5 μM of a GST-fusion protein of recombinant human (h)Gadd45β (GST-hGadd45β; purified from bacterial lysates as described in Papa, S., (2007) J. Biol. Chem. 282, 19029-19041), before using them for the kinase reaction described above, as indicated in FIG. 6.
In all cases, kinase reactions were terminated by the addition of Laemmli sample buffer. […] For a further discussion of MKK7 kinase assay conditions, the reader is directed to Papa, S et al., (2007) J. Biol. Chem. 282, 19029-19041 and Papa, S et al., (2004) Nat. Cell Biol. 6, 146-153 and the references therein.

Square brackets hold non-standard residues; d marks the D form. Peptide text beside a SMILES is read from it. * marks the point of attachment. Cbz = O=C(OCc1ccccc1)*

As for `NC(=O)[C@@H](Cc1ccccc1)NC(=O)[C@@H](Cc1c[nH]cn1)NC(=O)[C@@H](CC(=O)O)NC(=O)[C@@H](Cc1ccc(O)cc1)NC(=O)OCc1ccccc1` [Compound 1, Z-Tyr-Asp-His-Phe-NH2] (Cbz-[dY][dD][dH][dF]-NH2), the “toxicity to primary B and T lymphocytes from mice” value in series [1] was “no toxicity”. For `N=C(N)NCCC[C@@H](NC(=O)[C@@H](CCC(=O)O)NC(=O)[C@@H](Cc1ccc(O)cc1)NC(=O)OCc1ccccc1)C(=O)N[C@H](Cc1ccccc1)C(N)=O` [Compound 9, Z-D-Tyr-D-Glu-D-Arg-D-Phe-NH2] (Cbz-[dY][dE][dR][dF]-NH2), the “toxicity to primary B and T lymphocytes from mice” value in series [1] is “no toxicity”. With `CC(=O)N[C@H](Cc1ccc(O)cc1)C(=O)N[C@H](CCC(=O)O)C(=O)N[C@H](CCCNC(=N)N)C(=O)N[C@H](Cc1ccccc1)C(N)=O` [DTP2, Acetyl-(D-Tyr)-(D-Glu)-(D-Arg)-(D-Phe)-NH2] (Ac-[dY][dE][dR][dF]-NH2), the cellular permeability entry with CaCO2 is on record as “low cellular permeability”. Moreover, the “restoration of MKK7 catalytic activity” value at Gadd45β-inhibited MKK7 is on record as “fully restored the catalytic activity of MKK7”. In the case of `CC(=O)N[C@H](Cc1ccc(O)cc1)C(=O)N[C@H](CC(=O)O)C(=O)N[C@H](Cc1c[nH]cn1)C(=O)N[C@H](Cc1ccccc1)C(N)=O` [DTP1, Acetyl-(D-Tyr)-(D-Asp)-(D-His)-(D-Phe)-NH2] (Ac-[dY][dD][dH][dF]-NH2), on Gadd45β-inhibited MKK7, the “restoration of MKK7 catalytic activity” value is listed as “fully restored the catalytic activity of MKK7”.
